{"source": "patent US20230263822A1", "about": "“MODULATION OF FACTOR 11 EXPRESSION” (Ionis Pharmaceuticals, Inc., priority 2008, published 2023)", "key": {"[1]": {"test_system": "Factor 11 mRNA", "test": "Factor 11 mRNA in liver, FeCl3 induced venous thrombosis model vs warfarin (Example 11)", "assay_type": "in vivo, BALB/c mice", "conditions": "for % inhibition of Factor 11 mRNA in liver relative to PBS control: FeCl3 VT model", "procedure": "Two control groups of BALB/c mice were treated with PBS, administered subcutaneously twice a week for 3 weeks. Two days after the last dose of PBS, mice in both groups were anesthetized with 150 mg/kg ketamine mixed with 10 mg/kg xylazine administered by intraperitoneal injection. Thrombus formation was induced with FeCl3 in all groups of mice except the first control group.\n(§1) In mice undergoing FeCl3 treatment, thrombus formation was induced by applying a piece of filter paper (2×4 mm) pre-saturated with 10% FeCl3 solution directly on the vena cava. After 3 minutes of exposure, the filter paper was removed. Thirty minutes after the filter paper application, a fixed length of the vein containing the thrombus was dissected out for platelet analysis. Liver was collected for RNA analysis.\nRNA was extracted from liver tissue for real-time PCR analysis of Factor 11."}, "[2]": {"test_system": "blood coagulation", "test": "PT and aPTT, combination with LOVENOX (Example 19)", "assay_type": "in vivo, BALB/c mice", "procedure": "PT and aPTT were measured using PPP from mice treated with ISIS 404071 in combination with LOVENOX. In the first cohort, ISIS 404071 was administered subcutaneously to BALB/c mice at a dosage of 25 mg/kg twice a week for 3 weeks. Plasma was collected from these mice 5 days after receiving the last dose of ISIS 404071. In the second cohort, LOVENOX was administered subcutaneously to BALB/c mice at a dosage of 20 mg/kg once daily for three days. Plasma was collected from these mice 4 hours after receiving the last dose of LOVENOX. In the third cohort, ISIS 404071 was administered subcutaneously to BALB/c mice at a dosage of 20 mg/kg twice a week for 3 weeks, and 2 days after receiving the last dose of ISIS 404071, LOVENOX was administered subcutaneously at a dosage of 20 mg/kg once daily. Plasma was collected from these mice 4 hours after the last dose of LOVENOX. In a fourth cohort, PBS was administered subcutaneously twice a week for three weeks, as a control. Plasma was collected from these mice 5 days after the last dose.\nPT and aPTT values provided in Table 31 are reported as International Normalized Ratio (INR) values. […] Also shown in Table 31, treatment with LOVENOX and treatment with ISIS 404071 combined with LOVENOX increase aPTT."}, "[3]": {"test_system": "platelet factor-4 (PF-4)", "test": "Factor 7a protein antidote: PF-4 in FeCl3 induced VT model (Example 24)", "assay_type": "in vivo, BALB/c mice", "conditions": "ISIS 404071 20 mg/kg s.c. twice a week for 3 weeks; human Factor 7a 5 μg/kg fifteen minutes before FeCl3 where given", "procedure": "The effect of human Factor 7a (Factor VIIa) protein as an antidote for ISIS 404071 was tested in BALB/c mice. […] Thrombus formation was induced with FeCl3 in all of the mice except the first control group. Fifteen minutes before FeCl3 treatment, the first experimental group was treated with 5 μg/kg of human Factor 7a protein antidote (product no. 407act, American Diagnostica Inc.). Two days after their last dose, all mice were anesthetized with 150 mg/kg of ketamine mixed with 10 mg/kg of xylazine administered by intraperitoneal injection.\nas §1, with “analysis.” for “analysis. Liver was collected for RNA analysis.”\nReal-time PCR quantification of platelet factor-4 (PF-4) was used to quantify platelets in the vena cava as a measure of thrombus formation. Results are presented as a percentage of PF-4 in antidote treated and untreated mice, as compared to the two PBS-treated control groups."}, "[4]": {"test": "Tail bleeding assay, combination with PLAVIX (Example 27)", "assay_type": "in vivo, BALB/c mice", "conditions": "ISIS 404071 20 mg/kg, PLAVIX 0", "procedure": "ISIS 404071 was administered subcutaneously at a dosage of 20 mg/kg twice a week for 3 weeks to 5 groups of eight BALB/c mice. After the last dose of ISIS 404071, mice were treated with 0 mg/kg, 6.25 mg/kg, 12.50 mg/kg, 25.00 mg/kg, or 50.00 mg/kg of PLAVIX. Two doses of PLAVIX were administered to the mice on day one and one dose of PLAVIX was administered on day two, two hours before bleeding.\nTwo hours after receiving their final treatment, mice were placed in a tail bleeding chamber. […] The blood was collected for the course of 40 minutes."}, "[5]": {"test_system": "blood coagulation", "test": "PT and aPTT, combination with warfarin (Example 21)", "assay_type": "in vivo, BALB/c mice", "procedure": "Plasma was collected from each group 5 days after the last dose was administered. […] In a final group of BALB/c mice, PBS was administered subcutaneously twice a week for three weeks, as a control. Plasma was collected 5 days after the last PBS treatment.\nPT and aPTT values provided in Table 33 are reported as International Normalized Ratio (INR) values."}, "[6]": {"test_system": "murine Factor 11 protein", "test": "Factor 11 protein, F11 assay based on clotting time (Example 10)", "assay_type": "in vivo", "conditions": "BALB/c mice; for % Inhibition of murine Factor 11 protein: plasma, relative to PBS control", "procedure": "BALB/c mice were injected with 5 mg/kg, 10 mg/kg, 25 mg/kg, or 50 mg/kg of ISIS 404057 or ISIS 404071 twice a week for 3 weeks. A control group of mice was injected with phosphate buffered saline (PBS) twice a week for 3 weeks. Mice were sacrificed 5 days after receiving the last dose. Whole liver was harvested for RNA analysis and plasma was collected for clotting analysis (PT and aPTT) and protein analysis.\nFactor 11 proenzyme from the plasma of mice treated with ISIS 404071, was measured using a F11 assay based on clotting time. Clotting times were determined in duplicate with a ST4 semi-automated coagulation instrument (Diagnostica Stago, NJ). Thirty μl of citrated sample plasma diluted 1/20 in HEPES-NaCl buffer with BSA was incubated with 30 μl aPTT reagent (Platelet Factor 3 reagent plus particulate activator) and 30 μl of citrated plasma deficient of Factor 11 (human congential, George King Bio-Medical Inc.) at 37° C. to initiate clotting. Results were interpolated on a standard curve of serially diluted citrated control murine plasma.\nResults are presented as percent inhibition of Factor 11, relative to PBS control."}, "[7]": {"conditions": "ISIS 404071 alone 25 mg/kg s.c. twice a week for 3 weeks, LOVENOX alone 20 mg/kg s.c. once daily for three days, combination 20 mg/kg + 20 mg/kg"}, "[8]": {"conditions": "BALB/c mice, ISIS 404071 25 or 50 mg/kg, warfarin 2 mg/kg"}, "[9]": {"conditions": "ISIS 404071 25 mg/kg s.c. twice a week for 3 weeks"}, "[10]": {"conditions": "ISIS 404071 50 mg/kg s.c. twice a week for 3 weeks"}}}
{"substance": "ISIS 404071: antisense oligonucleotide targeted to murine Factor 11 mRNA, TGGTAATCCACTTTCAGAGG, target start site 869 (chemistry not given here)", "values": [{"measurement": "Factor 11 mRNA in liver vs PBS control", "setting": "[1]; FeCl3 induced VT model, ISIS 404071 1.25-40 mg/kg s.c. twice a week 3 weeks, warfarin 0.5-5 mg/kg daily 6 days", "result": "significant dose-dependent reduction of Factor 11 mRNA"}, {"measurement": "% inhibition of Factor 11 mRNA in liver relative to PBS control", "setting": "[1]; ISIS 404071 1.25 mg/kg subcutaneously twice a week for 3 weeks", "result": 0, "unit": "%"}, {"measurement": "% inhibition of Factor 11 mRNA in liver relative to PBS control", "setting": "[1]; ISIS 404071 5 mg/kg subcutaneously twice a week for 3 weeks", "result": 62, "unit": "%"}, {"measurement": "% inhibition of Factor 11 mRNA in liver relative to PBS control", "setting": "[1]; ISIS 404071 10 mg/kg subcutaneously twice a week for 3 weeks", "result": 78, "unit": "%"}, {"measurement": "% inhibition of Factor 11 mRNA in liver relative to PBS control", "setting": "[1]; ISIS 404071 20 mg/kg subcutaneously twice a week for 3 weeks", "result": 92, "unit": "%"}, {"measurement": "% inhibition of Factor 11 mRNA in liver relative to PBS control", "setting": "[1]; ISIS 404071 40 mg/kg subcutaneously twice a week for 3 weeks", "result": 96, "unit": "%"}, {"measurement": "PT", "setting": "[2]; BALB/c mice, ISIS 404071 25 or 20 mg/kg, LOVENOX 20 mg/kg", "result": "not significantly affected"}, {"measurement": "PT INR", "setting": "[2]; [7]", "result": 0.95, "unit": "INR"}, {"measurement": "aPTT INR", "setting": "[2]; [7]", "result": 1.31, "unit": "INR"}, {"measurement": "PF-4 in vena cava, percentage as compared to PBS controls (thrombus formation)", "setting": "[3]", "result": 18, "unit": "%"}, {"measurement": "Blood (tail bleeding, collected for 40 minutes)", "setting": "[4]", "result": 0, "unit": "g"}, {"measurement": "PT", "setting": "[5]; [8]", "result": "not affected"}, {"measurement": "aPTT", "setting": "[5]; [8]", "result": "affected"}, {"measurement": "PT INR", "setting": "[5]; [9]", "result": 0.98, "unit": "INR"}, {"measurement": "aPTT INR", "setting": "[5]; [9]", "result": 1.37, "unit": "INR"}, {"measurement": "PT INR", "setting": "[5]; [10]", "result": 0.93, "unit": "INR"}, {"measurement": "aPTT INR", "setting": "[5]; [10]", "result": 1.49, "unit": "INR"}, {"measurement": "Factor 11 protein", "setting": "[6]; 5-50 mg/kg", "result": "significant dose-dependent reduction of Factor 11 protein"}, {"measurement": "% Inhibition of murine Factor 11 protein", "setting": "[6]; 5 mg/kg", "result": 39, "unit": "%"}, {"measurement": "% Inhibition of murine Factor 11 protein", "setting": "[6]; 10 mg/kg", "result": 67, "unit": "%"}, {"measurement": "% Inhibition of murine Factor 11 protein", "setting": "[6]; 25 mg/kg", "result": 89, "unit": "%"}, {"measurement": "% Inhibition of murine Factor 11 protein", "setting": "[6]; 50 mg/kg", "result": 96, "unit": "%"}]}
